Experimental data from patent publication US11034702B2, “Thienoisoquinolines and their derivatives for the treatment of cancer” (VALORBEC, SOCIÉTÉ EN COMMANDITE, priority 2016, dated 2021).
Entries after “also recorded” stand apart in the source; their conditions may differ.

Columns and labels:
[1] = tested on: A549 (lung carcinoma) cells; test: IC50 (viability) in A549 cells; type: cell-based; conditions: Homo sapiens
Protocol: 19 variants with different structural modifications have been made. […] In particular, it is shown that C75 causes death in multiple cancer cells with IC50 values in the 100 nM range, including breast cancers (MCF7, BT549), lung cancer (A549), colorectal cancer (HCT116) in addition to HeLa cells (cervical cancer).

[2] = tested on: HeLa cells; test: Mitotic spindle / centrosome phenotype in HeLa cells (tubulin and DAPI staining, live imaging); type: cell-based, human
Protocol: There were more rounded mitotic cells after C75 treatment in comparison to the control. FIG. 1B) is a line graph showing the percentage of HeLa and HFF1 cells in mitosis after treatment with various concentrations of C75 for 8 hours. The bars indicate standard deviation. FIG. 1C) is a series of images showing cells that were fixed and co-stained for tubulin (microtubules) and DAPI (DNA). Treatment of HeLa cells with 300 nM C75 caused the mitotic spindles to be disorganized, while they were not affected in HFF1 cells. […] The scale bar for the cells is 10 μm. FIG. 1D) is a cartoon schematic showing the key features of a metaphase cell.
FIG. 2A) is a line graph showing the percentage of HCT116 (p53−/−) cells, A549 cells, HeLa cells and H1299 cells in mitosis after treatment with various concentrations of C75 for one population doubling time. All of the cell lines show an increase in the proportion of mitotic cells after treatment with 200 nM C75. The bars indicate standard deviation. […] While the mitotic spindles were not dramatically altered by C75 in HFF1 cells, they were monopolar (as shown) or fragmented in the other cell types. […] The mitotic spindles were more strongly fragmented after C75 treatment in these cells vs. the cells in FIG. 2B). […] While mitotic spindles recovered bipolarity after removing nocodazole, they remained multipolar after removing C75. FIG. 2F) is a series of time-lapse images of a live HeLa cell expressing GFP:tubulin after treatment with C75 as shown in 2D) and 2E). The scale bar for all cells is 10 μm. FIG. 2G) is a schematic showing the putative target for C75. Healthy cells have two centrosomes that separate and form a bipolar spindle, while cancer cells have aberrant centrosomes that cluster to form ‘pseudo’ bipolar spindles, and C75 may target this process and their integrity.
FIG. 3A) is a line graph showing the percentage of mitotic HeLa or HFF1 cells treated with a range of paclitaxel (Taxol™; tubulin-targeting drug) concentrations+/−C75 as indicated. The bars indicate standard deviation. FIG. 3B) is a series of bar graphs showing the proportion of HCT116 cells that have monopolar spindles, bipolar spindles with aligned chromosomes, bipolar spindles with misaligned chromosomes and multipolar/fragmented spindles after treatments as shown. Treatments include DMSO (control), varying concentrations of paclitaxel and/or varying concentrations of C75 after 7 hours. While treatment of HCT116 cells with 2.5 nM paclitaxel caused a threshold of mitotic spindle phenotypes, adding increasing concentrations of C75 in combination with 2.5 nM paclitaxel caused the phenotypes to progressively worsen. FIG. 3C) is bar graph showing the average distance between centrosome fragments in HCT116 cells after treatments as shown. While centrosome fragments moved closer together with increased concentrations of paclitaxel, they moved further apart with increased concentrations of C75. […] FIG. 3E) is a line graph showing the percentage of mitotic HeLa or HFF1 cells treated with a range of nocodazole concentrations+/−C75 as indicated. The bars indicate standard deviation. FIG. 3F) is a series of images showing fixed HeLa cells after treatment with C75+/− nocodazole co-stained for tubulin, γ-tubulin and DNA (DAPI). […] Adding nocodazole to cells treated with 300 nM C75 caused mitotic spindle phenotypes to worsen and appear more similar to those after treatment with 600 nM C75. The scale bar for all cells is 10 μm. FIG. 3G) is a bar graph showing the percentage of phenotypes observed for metaphase HeLa cells treated with nocodazole or C75, or both for 20 minutes (n>15 per treatment).
Spindle fragmentation only occurred after extensive microtubule depolymerization in colchicine-treated cells, while the spindle poles fragmented prior to changes in microtubules after C75 treatment. The scale bar for all cells is 10 μm.
C75 was further tested and found to cause mitotic arrest in HeLa cells. […]

[3] = tested on: HeLa spheroids; test: HeLa multicellular tumour spheroids; type: cell-based, human
Protocol: FIG. 5A) is a series of images of HeLa multicellular tumor spheroids (spheroids) treated with control (500 nM C87), empty nanoparticles, 500 nM C75 and 250 nM C75-loaded nanoparticles over 3 days. […] The scale bar for all images is 100 μm. FIG. 5B) is a series images of HeLa spheroids after three days of treatment with control (500 nM C87) or 500 nM C75. The spheroids were stained for fluorescein diacetate (to detect live cells) and propidium iodide (to detect dead cells). […] The scale bar for all images is 100 μm. FIG. 5C) is a series of images of HCT116 spheroids treated with control (1 μM C87), 500 nM C75, 1 μM C75 and 500 nM C75-loaded nanoparticles over 5 days. […] The borders of the spheroids treated with 1 μM C75 or with 500 nM C75-loaded nanoparticles became highly irregular, indicative of loss of spheroid integrity. FIG. 5D) is a series images of HCT116 spheroids after six days of treatment with control (1 μM C87) or 1 μM C75. The spheroids were stained for fluorescein diacetate (live cells) and propidium iodide (dead cells). […] FIG. 5E) is a line graph showing the growth in surface area (%) of HCT116 spheroids treated with control (1 μM C87), 500 nM C75 and 1 μM C75 after six days. FIG. 5F) is a series of images of A549 spheroids treated with control (750 nM C87), 500 nM C75, 1 μM C75 and 500 nM C75-loaded nanoparticles over 5 days. […] The scale bar for all images is 100 μm. […]

COc1ccc(S(=O)(=O)N2Cc3ccccc3-c3sc(Br)cc32)cc1 [Compound C75]
IC50 [1]: 109 nM
mitotic spindle phenotype ([2]; HeLa, 300 nM): spindle organization was perturbed; also recorded: most of the spindles were severely fragmented
mitotic spindle phenotype ([2]; HeLa, 750 nM): Centrosomes were fragmented or declustered and microtubules were completely absent; also recorded: complete fragmentation of the mitotic spindles
spindle phenotype at lower concentrations ([2]; HeLa, 8 hours, 30 nM colchicine or 300 nM C75): disrupted spindle poles
spindle phenotype at higher concentrations ([2]; HeLa, 8 hours, 40 or 50 nM colchicine, 400 or 500 nM C75): spindle fragmentation prior to extensive loss of microtubules
time after exposure until centrosomes fragmented or declustered and microtubules collapsed ([2]; live imaging, HeLa GFP:tubulin): 4 to 6 min
time until microtubule polymers grew again ([2]; live imaging, HeLa, after wash-out, spindles tri- or multipolar): 20 to 30 min
spindle phenotype after drug wash-out ([2]; metaphase HeLa, 5 minutes treatment, washed out, imaged after 40 minutes): tri- or multipolar spindles formed
spindle phenotype, drugs alone vs. together ([2]; metaphase HeLa, nocodazole or C75 or both, 20 minutes): disorganized and/or fragmented mitotic spindles
effect on HeLa spheroids ([3]; 500 nM C75 or 250 nM C75-loaded nanoparticles, over 3 days): disrupt HeLa spheroids
live/dead staining of spheroids (fluorescein diacetate / propidium iodide) ([3]; HeLa spheroids, 500 nM, three days): majority of HeLa cells were dead
